Earlier results on one compound are cited in patent publication US11827744B2, “Bottlebrush copolymers and uses thereof” (Massachusetts Institute of Technology, priority 2016, dated 2023).

Structures are written as SMILES.

For data set [1] the following is noted: in vivo.

Turning to `CCc1c2c(nc3ccc(O)cc13)-c1cc3c(c(=O)n1C2)COC(=O)[C@]3(O)CC` [SN-38], the water solubility entry is given as “low water solubility”. In addition, the circulation life-times entry in data set [1] was “short circulation life-times”.
